Measured values reported in paper PMC11510069, “Anti-Diabetic Activities and Molecular Docking Studies of Aryl-Substituted Pyrazolo[3,4-b]pyridine Derivatives Synthesized via Suzuki Cross-Coupling Reaction” (Pharmaceuticals, 2024).
Read-outs that look alike come from different tables or passages of the source.

Legend:
[1] = target: T1, α-amylase (Hi media RM 638) enzyme (Aspergillus oryzae, UniProt P0C1B3); experiment: biochemical
T1 construct: purchased Hi media RM 638
Procedure: The anti-diabetic activity of all the prepared derivatives (6a–i) and (7a–i) was evaluated following the method reported in refs. [31, 32]. In brief, to check the anti-diabetic activity of each compound, […] different concentrations, ranging from 250 to 50 μg, with a difference of 50 μg, were used and each concentration was treated with 200 μL of α-amylase (Hi media RM 638) enzyme to determine the anti-diabetic activity in triplicate at each concentration. Here, 0.6 mL of each sample at each concentration was mixed with 0.6 mL of buffered solution (0.03 M sodium phosphate buffer), which was subsequently incubated for 16 min at 37 °C. Afterwards, 1 mL of starch solution was added to the above solutions. In the next step, 1 mL of color-imparting reagent, […] (DNSA), was poured into each solution and the solution was left for 6 min in boiling water. Finally, the solutions were made up to 20 mL with distilled water. […] The absorbance value taken at 670 nm was used to check the performance of the newly obtained derivatives. The following Equation (1) was used to determine the percentage inhibition of each drug at the different concentrations. (1) %A=Acontrol−Asample/Acontrol×100 where %A, Acontrol and Asample are the percentage inhibition, absorbance blank and absorbance of sample, respectively.
The concentration of pyrazolo[3,4-b]pyridine derivative needed to inhibit the α-amylase activity by 50% is known as the IC50 value and is calculated from the plot of the percent inhibition against the log inhibitor concentration (i.e., synthesized drugs). A non-linear regression analysis on Graph Pad Prism 8.0.2. was performed on the plots to extract the IC50 value for each compound.

[2] = Table 2, in vitro anti-diabetic, ester derivatives, read-out: IC50 Value
[3] = Figure 6, read-out: IC50 (α-amylase inhibition)
[4] = Table 3, anti-diabetic, hydrazide derivatives, read-out: IC50 Value

Compound	IC50 [1, 2] [µM]	IC50 [1, 3] [µM]	IC50 [1, 4] [µM]	melting point [°C]
CCOC(=O)c1cc(-c2ccc(-c3ccccc3)s2)c2c(C)nn(-c3ccccc3)c2n1 [Compound 6b, Ethyl 3-Methyl-1-phenyl-4-(5-phenylthiophen-2-yl)-1H-pyrazolo[3,4-b]pyridine-6-carboxylate]	5.14			
CCOC(=O)c1cc(-c2ccc(-c3cccc(C(C)(C)C)c3)s2)c2c(C)nn(-c3ccccc3)c2n1 [Compound 6f, Ethyl 4-(5-(3-(Tert-butyl)phenyl)thiophen-2-yl)-3-methyl-1-phenyl-1H-pyrazolo[3,4-b]pyridine-6-carboxylate]	58.6	58.7		
Cc1nn(-c2ccccc2)c2nc(C(=O)NN)cc(-c3ccc(Br)s3)c12 [Compound 5, 4-(5-Bromothiophen-2-yl)-3-methyl-1-phenyl-1H-pyrazolo[3,4-b]pyridine-6-carbohydrazide]			7.91	265
CCOC(=O)c1cc(-c2ccc(-c3cccs3)s2)c2c(C)nn(-c3ccccc3)c2n1 [Compound 6a, Ethyl 4-([2,2′-Bithiophen]-5-yl)-3-methyl-1-phenyl-1H-pyrazolo[3,4-b]pyridine-6-carboxylate]	8.38			154 to 157
CCOC(=O)c1cc(-c2ccc(-c3cccc(C(F)(F)F)c3)s2)c2c(C)nn(-c3ccccc3)c2n1 [Compound 6h, Ethyl 3-Methyl-1-phenyl-4-(5-(3-(trifluoromethyl)phenyl)thiophene-2-yl)-1H-pyrazolo[3,4-b]pyridine-6-carboxylate]	5.2	5.56		149.5
CCOC(=O)c1cc(-c2ccc(-c3cccc4c3OCO4)s2)c2c(C)nn(-c3ccccc3)c2n1 [Compound 6c, Ethyl 4-(5-(Benzo[d][1,3]dioxol-4-yl)thiophen-2-yl)-3-methyl-1-phenyl-1H-pyrazolo[3,4-b]pyridine-6-carboxylate]	5.15			127
CCOC(=O)c1cc(-c2ccc(-c3cc(OC)cc(OC)c3)s2)c2c(C)nn(-c3ccccc3)c2n1 [Compound 6d, Ethyl 4-(5-(3,5-Dimethoxyphenyl)thiophene-2-yl)-3-methyl-1-phenyl-1H-pyrazolo[3,4-b]pyridine-6-carboxylate]	7.06			147.5
CCOC(=O)c1cc(-c2ccc(-c3cccc(F)c3F)s2)c2c(C)nn(-c3ccccc3)c2n1 [Compound 6g, Ethyl 4-(5-(2,3-Difluorophenyl)thiophen-2-yl)-3-methyl-1-phenyl-1H-pyrazolo[3,4-b]pyridine-6-carboxylate]	5.56	5.2		170.3
Ethyl 4-(5-(3,5-Dimethylphenyl)thiophen-2-yl)-3-methyl-1-phenyl-1H-pyrazolo[3,4-b]pyridine-6-carboxylate [Compound 6e]	9.01			
CCOC(=O)c1cc(-c2ccc(Br)s2)c2c(C)nn(-c3ccccc3)c2n1 [Compound 4, Ethyl 4-(5-Bromothiophen-2-yl)-3-methyl-1-phenyl-1H-pyrazolo[3,4-b]pyridine-6-carboxylate]	7.26			203 to 205
CCOC(=O)c1cc(-c2ccc(-c3ccc(Cl)s3)s2)c2c(C)nn(-c3ccccc3)c2n1 [Compound 6i, Ethyl 4-(5′-Chloro-[2,2′-bithiophen]-5-yl)-3-methyl-1-phenyl-1H-pyrazolo[3,4-b]pyridine-6-carboxylate]	7.4			165

Continued, values first:

IC50 [1, 2] [µM]	IC50 [1, 3] [µM]	IC50 [1, 4] [µM]	melting point [°C]	Compound
		8.45	270	Cc1nn(-c2ccccc2)c2nc(C(=O)NN)cc(-c3ccc(-c4ccc(Cl)s4)s3)c12 [Compound 7i, 4-(5′-Chloro-[2,2′-bithiophen]-5-yl)-3-methyl-1-phenyl-1H-pyrazolo[3,4-b]pyridine-6-carbohydrazide]
		5.17	276	Cc1nn(-c2ccccc2)c2nc(C(=O)NN)cc(-c3ccc(-c4cccc5c4OCO5)s3)c12 [Compound 7c, 4-(5-(Benzo[d][1,3]dioxol-4-yl)thiophen-2-yl)-3-methyl-1-phenyl-1H-pyrazolo[3,4-b]pyridine-6-carbohydrazide]
		5.1		Cc1nn(-c2ccccc2)c2nc(C(=O)NN)cc(-c3ccc(-c4cccc(C(C)(C)C)c4)s3)c12 [Compound 7f, 4-(5-(3-(Tert-butyl)phenyl)thiophen-2-yl)-3-methyl-1-phenyl-1H-pyrazolo[3,4-b]pyridine-6-carbohydrazide]
		8.94		Cc1ccc(-c2ccc(-c3cc(C(=O)NN)nc4c3c(C)nn4-c3ccccc3)s2)c(C)c1 [Compound 7e, 4-(5-(2,4-Dimethylphenyl)thiophen-2-yl)-3-methyl-1-phenyl-1H-pyrazolo[3,4-b]pyridine-6-carbohydrazide]
	5.16	5.15	275	Cc1nn(-c2ccccc2)c2nc(C(=O)NN)cc(-c3ccc(-c4cccc(F)c4F)s3)c12 [Compound 7g, 4-(5-(2,3-Fluorophenyl)thiophen-2-yl)-3-methyl-1-phenyl-1H-pyrazolo[3,4-b]pyridine-6-carbohydrazide]
	6.19	5.19		Cc1nn(-c2ccccc2)c2nc(C(=O)NN)cc(-c3ccc(-c4cccc(C(F)(F)F)c4)s3)c12 [Compound 7h, 3-Methyl-1-phenyl-4-(5-(3-(trifluoromethyl)phenyl)thiophen-2-yl)-1H-pyrazolo[3,4-b]pyridine-6-carbohydrazide]
		5.18		Cc1nn(-c2ccccc2)c2nc(C(=O)NN)cc(-c3ccc(-c4ccccc4)s3)c12 [Compound 7b, 3-Methyl-1-phenyl-4-(5-phenylthiophen-2-yl)-1H-pyrazolo[3,4-b]pyridine-6-carbohydrazide]
		5.12	249	COc1cc(OC)cc(-c2ccc(-c3cc(C(=O)NN)nc4c3c(C)nn4-c3ccccc3)s2)c1 [Compound 7d, 4-(5-(3,5-Dimethoxyphenyl)thiophen-2-yl)-3-methyl-1-phenyl-1H-pyrazolo[3,4-b]pyridine-6-carbohydrazide]
		5.21	255	Cc1nn(-c2ccccc2)c2nc(C(=O)NN)cc(-c3ccc(-c4cccs4)s3)c12 [Compound 7a, 4-([2,2′-Bithiophen]-5-yl)-3-methyl-1-phenyl-1H-pyrazolo[3,4-b]pyridine-6-carbohydrazide]
